Values joined by “and” are separate entries in the source; they are usually repeats but may differ in a detail not shown here. Equal values may be shown once. Read-outs that look alike come from different tables or passages of the source.
Molecular target: T1, CVB3 3C protease (Coxsackievirus B3, UniProt P03313)
T1 construct: 3C protease of Coxsackie virus B3 consisting of 183 amino-acid residues; made in house; host or cells: E. coli BL21(DE3), plasmid pET-23a(+)
Assay: FRET-based enzyme activity assay (warhead activation / inhibitor kinetics)
Type: biochemical, Coxsackie virus B3
Settings: for kinact/KI: relative inactivation rate, slope of kobs against inhibitor concentration
Experimental: The activity of the protease was measured by hydrolysis of the FRET-substrate N-Dabcyl-KTLEALFQ↓GPPVYE(Edans)-NH2. The peptide was purchased from Biosyntan (Berlin, Germany). Samples were irradiated with light with a wavelength of 355 nm and the emitted light at 538 nm was measured in relative fluorescence units (RFUs). An amount of 100 pmol of cleaved substrate equals 5,000 RFU.
Assay samples contained 10 μl of a 100 mM HEPES-NaOH buffer solution pH 7.5/1 mM EDTA, 10 μl enzyme solution (2 μM CVB3 3C^Pro), 10 μl of 10 μM substrate solution (both dissolved in the above buffer) and 1 μl Inhibitor and/or fragment dissolved in DMSO. For assay results of a dilution series of a mixture of 1 and 2 and comparison of reaction products in dependence of the assay solvent, see Supplementary Figs 1 and 2.
The screening procedure consisted of the following steps: 10 μl 100 mM HEPES-NaOH buffer solution pH 7.5/1 mM EDTA was placed in a cavity of the 384-well plate (polystyrene, Corning 3544). Then 10 μl of enzyme solution (40 μM CVB3 3C protease in 100 mM HEPES-NaOH buffer solution, pH 7.5/1 mM EDTA) was added and the plate was shaken for 2 min at 1,400 r.p.m. Afterwards, 0.5 μl of a DMSO solution of the electrophilic probe and 0.5 μl of a DMSO solution of the nucleophile was added, followed by 10 μl of substrate solution (10 μM in 100 mM HEPES-NaOH buffer solution, pH 7.5/1 mM EDTA). The plate was shaken again for 2 min at 1,400 r.p.m. and the generated fluorescence signal was measured with a Safire II Fluorimeter from Tecan. The electrophilic probe 1 was used at a concentration of 400 μM for the screening, which lowered the protease activity by 10–20%. Eight-hundred fifty primary amines were tested at a concentration of 320 μM and fragment 2 amplified the inhibitory activity of 1 most potently. Positive control samples contained only DMSO instead of the probe or the nucleophile. Negative control samples contained no active enzyme. An interfering fluorescent effect has not been observed.
When determining the inhibitory parameters of an inhibitor, the assay set-up was as mentioned but 1 μl DMSO solution of inhibitor was used instead of probe or nucleophile. Different concentrations of inhibitor were tested at least as duplicates and the pseudo-first-order association kinetics (kobs) were determined using GraphPad Prism. The slope of a plot of the different kobs values against the inhibitor concentration yielded kinact/KI.

T1 sequence (P03313 1541-1723): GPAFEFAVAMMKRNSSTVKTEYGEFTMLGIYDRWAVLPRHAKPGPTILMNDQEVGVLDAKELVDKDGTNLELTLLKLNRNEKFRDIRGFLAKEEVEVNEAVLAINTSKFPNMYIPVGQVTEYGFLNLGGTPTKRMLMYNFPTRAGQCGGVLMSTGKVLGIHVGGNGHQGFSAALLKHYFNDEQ

SMILES: Nc1cc(=O)[nH]n1C1CCCCCC1 [Compound 2, 5-amino-1-cycloheptyl-1,2-dihydropyrazol-3-one]
- inhibition of the protease, in words: virtually inactive
- reduction of the enzyme's activity (inhibition) (fragments alone or combined at the same concentrations, ligation assay): no more than 10%

SMILES: CCOC(=O)[C@H]1O[C@@H]1Cc1c(N)n(C2CCCCCC2)[nH]c1=O [Compound 3]
- kinact/KI (read-out: kinact/KI): 3.7 ± 0.2 M⁻¹ s⁻¹

SMILES: CCOC(=O)[C@H]1O[C@@H]1C(=O)Nc1cc(=O)[nH]n1C1CCCCCC1 [Compound 4]
- inhibition of the protease, in words: reversible inhibitor
- IC50 (read-out: IC50): 142 ± 5.6 µM

SMILES: CCOC(=O)[C@H]1O[C@H]1C(=O)Nc1cc(=O)[nH]n1C1CCCCCC1 [Compound 5]
- inhibition of the protease, in words: inactive

SMILES: O=C(NCc1cccc2ccccc12)[C@H]1O[C@@H]1C(=O)Nc1cc(=O)[nH]n1C1CCCCCC1 [Compound 6]
- inhibition of the protease, in words: inactive

SMILES: CCOC(=O)/C=C/Cc1c(N)n(C2CCCCCC2)[nH]c1=O [Compound 7]
- kinact/KI: 0.4 M⁻¹ s⁻¹ and 0.42 ± 0.01 M⁻¹ s⁻¹

SMILES: CCOC(=O)/C=C/C(=O)c1c(N)n(C2CCCCCC2)[nH]c1=O [Compound 8]
- kinact/KI: 132 M⁻¹ s⁻¹ and 131.7 ± 4.2 M⁻¹ s⁻¹

SMILES: CCOC(=O)/C=C/C(=O)Nc1cc(=O)[nH]n1C1CCCCCC1 [Compound 9]
- inhibition of the protease, in words: inactive

SMILES: CCOC(=O)/C=C/C(=O)c1c(N)n(-c2ccccc2)[nH]c1=O [Compound 10]
- kinact/KI (read-out: kinact/KI): 14.7 ± 0.9 M⁻¹ s⁻¹
